Data reported in ChEMBL document CHEMBL4196112, “Design of Selective sPLA2-X Inhibitor (-)-2-{2-[Carbamoyl-6-(trifluoromethoxy)-1H-indol-1-yl]pyridine-2-yl}propanoic Acid” (ACS Med Chem Lett, 2018).
Active and inactive are the calls of the source. The rule behind the calls is not given here.

Assays:
[1] = molecular target: T1, Group 10 secretory phospholipase A2 (Homo sapiens, UniProt O15496); assay: Inhibition of sPLA2-10 (unknown origin) using 1-palmitoyl-2-oleoyl-sn-glycero-3-phosphocholine as substrate pretreated for 20 mins followed by substrate addition and measured after 60 mins by NEFA based assay
T1 sequence (O15496 whole entry): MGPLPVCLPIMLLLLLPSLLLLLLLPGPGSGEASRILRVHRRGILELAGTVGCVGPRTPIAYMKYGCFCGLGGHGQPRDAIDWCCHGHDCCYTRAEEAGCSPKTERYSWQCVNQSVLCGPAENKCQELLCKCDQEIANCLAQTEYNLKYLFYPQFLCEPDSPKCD

[2] = molecular target: T2, Phospholipase A2, membrane associated (Homo sapiens, UniProt P14555); assay: Inhibition of sPLA2-2A (unknown origin) using 1-palmitoyl-2-oleoyl-sn-glycero-3-phosphocholine as substrate pretreated for 20 mins followed by substrate addition and measured after 60 mins by NEFA based assay
T2 sequence (P14555 whole entry): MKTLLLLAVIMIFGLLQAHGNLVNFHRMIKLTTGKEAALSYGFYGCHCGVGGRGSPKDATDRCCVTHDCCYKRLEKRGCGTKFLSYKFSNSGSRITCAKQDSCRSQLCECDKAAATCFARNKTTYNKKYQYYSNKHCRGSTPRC

[3] = molecular target: T3, Phospholipase A2 group V (Homo sapiens) (UniProt P39877); assay: Inhibition of sPLA2-5 (unknown origin) at 10 uM using 1-palmitoyl-2-oleoyl-sn-glycero-3-phosphocholine as substrate pretreated for 20 mins followed by substrate addition and measured after 60 mins by NEFA based assay
T3 sequence (whole entry): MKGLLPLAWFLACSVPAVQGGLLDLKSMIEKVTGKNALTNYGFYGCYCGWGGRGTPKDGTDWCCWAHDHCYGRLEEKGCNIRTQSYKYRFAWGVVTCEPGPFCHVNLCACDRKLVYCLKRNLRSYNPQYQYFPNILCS

[4] = molecular target: T1, Group 10 secretory phospholipase A2; assay: Inhibition of recombinant human sPLA2-10 using human HDL as substrate pretreated for 20 mins followed by substrate addition and measured after 60 mins by NEFA based assay
[5] = Intrinsic clearance in human hepatocytes assessed per million cells; type: ADME, cell-based, Hepatocyte; settings: read-out: CLH
[6] = test system: Mus musculus; assay: Unbound clearance in C57Bl/6J mouse administered iv or po; type: ADME, organism-based; settings: in vivo
[7] = molecular target: T4, Phospholipase A2 group V (Homo sapiens, UniProt P39877); assay: Inhibition of sPLA2-5 (unknown origin) using 1-palmitoyl-2-oleoyl-sn-glycero-3-phosphocholine as substrate pretreated for 20 mins followed by substrate addition and measured after 60 mins by NEFA based assay
T4 sequence (P39877 whole entry): T3 sequence (whole entry)

| SMILES | IC50 [1] [nM] | IC50 [2] [nM] | inhibition [3] | IC50 [4] [nM] | hepatocyte CLint [5] [µL/min/1e6 cells] | CL free [6] [mL/min/kg] | IC50 [7] [nM] |
| --- | --- | --- | --- | --- | --- | --- | --- |
| NC(=O)c1cc2ccc(OC(F)(F)F)cc2n1-c1ccn(CCC(=O)O)n1 | 4800 | 4000 | inactive |  |  |  |  |
| NC(=O)c1cc2ccc(OC(F)(F)F)cc2n1-c1cccc(CCC(=O)O)c1 |  |  |  | 310 | 9.33 | 1446 |  |
| CC(CC(=O)O)c1cccc(-n2c(C(N)=O)cc3ccc(OC(F)(F)F)cc32)n1 (single isomer, unassigned; (+)) [listing 1 of 2 here] |  |  | inactive |  |  |  |  |
| CC(Cc1cccc(-n2c(C(N)=O)cc3ccc(OC(F)(F)F)cc32)c1)C(=O)O (stereo in doubt) | 100 | 810 |  | 2800 |  |  | > 10000 |
| CC(Cc1cccc(-n2c(C(N)=O)cc3ccc(OC(F)(F)F)cc32)c1)C(=O)O (stereo in doubt; 10) | 32 | 57 |  | 350 |  |  | 510 |
| CCC(Cc1cccc(-n2c(C(N)=O)cc3ccc(OC(F)(F)F)cc32)n1)C(=O)O (stereo in doubt; 15) | 170 | 170 |  | 330 |  |  | 1900 |
| NC(=O)c1cc2ccc(OC(F)(F)F)cc2n1-c1cc(CCC(=O)O)ccn1 | 110 | 290 |  | 640 | < 5 |  | 720 |
| NC(=O)c1cc2ccc(OC(F)(F)F)cc2n1-c1ccc(CCC(=O)O)o1 | 430 | 1900 |  |  |  |  | 5900 |
| NC(=O)c1cc2ccc(OC(F)(F)F)cc2n1-c1cccc(CCC(=O)O)n1 | 29 | 470 |  | 250 | < 5 |  | 2300 |
| CC(CC(=O)O)c1cccc(-n2c(C(N)=O)cc3ccc(OC(F)(F)F)cc32)n1 (single isomer, unassigned; (+)) [listing 2 of 2 here] | 500 | 3800 |  |  |  |  |  |
| C[C@H](CC(=O)O)c1cccc(-n2c(C(N)=O)cc3ccc(OC(F)(F)F)cc32)c1 | 200 | 3900 |  |  |  |  | 8600 |
| CCC(Cc1cccc(-n2c(C(N)=O)cc3ccc(OC(F)(F)F)cc32)n1)C(=O)O (stereo in doubt) | 940 | 840 |  |  |  |  | > 10000 |
| NC(=O)c1cc2ccc(OC(F)(F)F)cc2n1-c1cnn(CCC(=O)O)c1 | > 10000 | 4500 |  |  |  |  | 2700 |
| CC(Cc1cccc(-n2c(C(N)=O)cc3ccc(OC(F)(F)F)cc32)n1)C(=O)O (stereo in doubt) | 570 | 1700 |  |  |  |  | > 10000 |
| COC(Cc1cccc(-n2c(C(N)=O)cc3ccc(OC(F)(F)F)cc32)c1)C(=O)O (stereo in doubt; 11) | 39 | 140 |  | 140 |  |  | 2100 |
| CC(Cc1ccnc(-n2c(C(N)=O)cc3ccc(OC(F)(F)F)cc32)c1)C(=O)O (stereo in doubt) | 360 | 340 |  | 3400 |  |  | 1600 |
| COC(Cc1cccc(-n2c(C(N)=O)cc3ccc(OC(F)(F)F)cc32)c1)C(=O)O (stereo in doubt) [listing 1 of 2 here] | 170 | 2700 |  |  |  |  |  |
| NC(=O)c1cc2ccc(OC(F)(F)F)cc2n1-c1ccnc(CCC(=O)O)c1 | 240 | 1200 |  | 1600 | < 5 |  | 2100 |
| CC(Cc1ccnc(-n2c(C(N)=O)cc3ccc(OC(F)(F)F)cc32)c1)C(=O)O (stereo in doubt; 13) | 140 | 44 |  | 830 |  |  | 180 |
| CC(Cc1cccc(-n2c(C(N)=O)cc3ccc(OC(F)(F)F)cc32)n1)C(=O)O (stereo in doubt; 14) | 65 | 92 |  | 250 |  |  | 510 |
| COC(Cc1cccc(-n2c(C(N)=O)cc3ccc(OC(F)(F)F)cc32)c1)C(=O)O (stereo in doubt) [listing 2 of 2 here] |  |  | inactive |  |  |  |  |
| CC(C)(Cc1cccc(-n2c(C(N)=O)cc3ccc(OC(F)(F)F)cc32)n1)C(=O)O | 320 | 3100 |  |  |  |  | > 10000 |
